What is called IC50 is the point on the concentration scale where inhibition reaches its midpoint.

The target in this assay is T1, human recombinant MGMT (O^6-methylguanine-DNA methyltransferase) (Homo sapiens, UniProt P16455).
T1 construct: recombinant
T1 sequence (P16455 1-207): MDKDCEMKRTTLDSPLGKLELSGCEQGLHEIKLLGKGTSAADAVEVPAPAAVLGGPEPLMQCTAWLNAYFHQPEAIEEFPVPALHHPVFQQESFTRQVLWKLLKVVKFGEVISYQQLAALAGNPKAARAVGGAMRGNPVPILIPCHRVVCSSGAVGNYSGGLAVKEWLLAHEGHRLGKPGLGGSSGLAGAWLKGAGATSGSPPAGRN
Kind of assay: [3H]-methylated-DNA MGMT inactivation assay. The format is biochemical.

As for `N#Cc1csc(COc2nc(N)nc3[nH]cnc23)c1` [compound 90], the IC50 was 3.02 nM. On to `CCCOC(=O)n1cc2c(OCc3cc(Br)cs3)nc(N)nc2n1` [compound 411], for which the IC50 is 2.82 nM.

For the origin of these results see PMC10458236, “QSAR and Chemical Read-Across Analysis of 370 Potential MGMT Inactivators to Identify the Structural Features Influencing Inactivation Potency” (Pharmaceutics, 2023).
